The results in this text go back to PubChem BioAssay AID256 (DTP/NCI, 2004).

This assay deals with CD2F1 mice, L1210 leukemia ip, survival T/C. Description: NCI In Vivo Anticancer Drug Screen. Data for tumor model L1210 Leukemia (intraperitoneal) in CD2F1 (CDF1) mice. The note with it: higher = longer survival. The gist of the method: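 Mice carrying a transplanted tumor received test compound or vehicle alone. The value is the measurement in the treated group divided by that in the vehicle-treated control group.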

Setting [1] is: endpoint: mean survival time, dose: 100.0 mg/kg/injection, schedule: Q01DX009 (ip), vehicle: saline with Tween-80.
[2] abbreviates: endpoint: mean survival time, dose: 200.0 mg/kg/injection, schedule: Q01DX009 (ip), vehicle: saline with Tween-80.
The mark [3] stands for this setting: endpoint: mean survival time, dose: 12.5 mg/kg/injection, schedule: Q01DX009 (ip), vehicle: water.
The mark [4] stands for this setting: endpoint: mean survival time, dose: 25.0 mg/kg/injection, schedule: Q01DX009 (ip), vehicle: water.
Setting [5] is: endpoint: mean survival time, dose: 50.0 mg/kg/injection, schedule: Q01DX009 (ip), vehicle: water.
Setting [6] is: endpoint: mean survival time, dose: 100.0 mg/kg/injection, schedule: Q01DX009 (ip), vehicle: water.
Where [7] appears, read: endpoint: mean survival time, dose: 200.0 mg/kg/injection, schedule: Q01DX009 (ip), vehicle: water.
Setting [8] is: endpoint: mean survival time, dose: 100.0 mg/kg/injection, schedule: Q04DX003 (ip), vehicle: saline with Tween-80.
Setting [9] is: endpoint: mean survival time, dose: 200.0 mg/kg/injection, schedule: Q04DX003 (ip), vehicle: saline with Tween-80.
Where [10] appears, read: endpoint: mean survival time, dose: 400.0 mg/kg/injection, schedule: Q01DX009 (ip), vehicle: saline with Tween-80.
Setting [11] is: endpoint: mean survival time, dose: 400.0 mg/kg/injection, schedule: Q04DX003 (ip), vehicle: saline with Tween-80.
[12] abbreviates: endpoint: mean survival time, dose: 100.0 mg/kg/injection, schedule: Q04DX002 (ip), vehicle: saline with Tween-80.
Setting [13] is: endpoint: mean survival time, dose: 100.0 mg/kg/injection, schedule: Q01DX001 (ip), vehicle: Klucel (hydroxypropylcellulose) (HPC).
Setting [14] is: endpoint: mean survival time, dose: 200.0 mg/kg/injection, schedule: Q01DX001 (ip), vehicle: Klucel (hydroxypropylcellulose) (HPC).
The mark [15] stands for this setting: endpoint: mean survival time, dose: 400.0 mg/kg/injection, schedule: Q01DX001 (ip), vehicle: Klucel (hydroxypropylcellulose) (HPC).

Several values for one entry are separate records, joined by “and”; a condition that tells them apart may be missing. Equal values may be shown once. Toxic doses and inconclusive results are not listed.

Regarding `[Cl][Pt+2][Cl].[NH-]Cc1cccc(F)c1.[NH-]Cc1cccc(F)c1`, the T/C is, setting by setting: (endpoint: mean survival time, dose: 12.5 mg/kg/injection, schedule: Q04DX003 (ip), vehicle: distilled water + Tween-80) 95 % of control; (endpoint: mean survival time, dose: 25.0 mg/kg/injection, schedule: Q04DX003 (ip), vehicle: distilled water + Tween-80) 95 % of control; (endpoint: mean survival time, dose: 50.0 mg/kg/injection, schedule: Q04DX003 (ip), vehicle: distilled water + Tween-80) 95 % of control; (endpoint: mean survival time, dose: 100.0 mg/kg/injection, schedule: Q04DX003 (ip), vehicle: distilled water + Tween-80) 100 % of control; (endpoint: mean survival time, dose: 200.0 mg/kg/injection, schedule: Q04DX003 (ip), vehicle: distilled water + Tween-80) 100 % of control.

For the compound `CCC1(O)C(=O)OCc2c1cc1n(c2=O)Cc2cc3cc4c(cc3nc2-1)OCO4` (centres undefined), the T/C runs as follows: (endpoint: median survival time, dose: 1.0 mg/kg/injection, schedule: Q01DX005 (ip), vehicle: saline with Tween-80) 192 % of control; (endpoint: median survival time, dose: 2.0 mg/kg/injection, schedule: Q01DX005 (ip), vehicle: saline with Tween-80) 114 % of control; (endpoint: median survival time, dose: 2.0 mg/kg/injection, schedule: Q04DX002 (ip), vehicle: saline with Tween-80) 325 % of control; (endpoint: median survival time, dose: 4.0 mg/kg/injection, schedule: Q01DX005 (ip), vehicle: saline with Tween-80) 101 % of control; (endpoint: median survival time, dose: 4.0 mg/kg/injection, schedule: Q04DX002 (ip), vehicle: saline with Tween-80) 190 % of control and 228 % of control; (endpoint: median survival time, dose: 16.0 mg/kg/injection, schedule: Q04DX002 (ip), vehicle: saline with Tween-80) 115 % of control and 124 % of control. The T/C (endpoint: median survival time, dose: 32.0 mg/kg/injection, schedule: Q04DX002 (ip), vehicle: saline with Tween-80) is 97 % of control.

As to `Cc1occc1S(N)(=O)=O`, the T/C (endpoint: mean survival time, dose: 75.0 mg/kg/injection, schedule: Q04DX002 (ip), vehicle: saline with Tween-80) was 120 % of control.

Consider `CCNC(=S)NNc1ccccc1`, for which the T/C by setting is: (endpoint: mean survival time, dose: 50.0 mg/kg/injection, schedule: Q01DX009 (ip), vehicle: saline with Tween-80) 103 % of control; under setting [1], 100 % of control; under setting [2], 88 % of control.

In the case of `CCOC(=O)C1C(=O)N(c2ccccc2)C(=O)N1C` (centres undefined), the T/C was 94 % of control under setting [3]; 93 % of control under setting [4]; 94 % of control under setting [5]; 98 % of control under setting [6]; 100 % of control under setting [7].

In the case of `COc1cc2c(c(OC)c1OC)-c1ccc(OC)c(=O)cc1[C@@H](N)CC2`, for the setting “endpoint: median survival time, dose: 1.5 mg/kg/injection, schedule: Q01DX009 (ip), vehicle: saline”, the T/C is 120 % of control.

Regarding `CC(SCc1ccccc1)C(NC(=O)c1ccccc1)C(=O)O` (centres undefined), the T/C was 93 % of control under setting [1]; 98 % of control under setting [8]; 90 % of control under setting [2]; 98 % of control under setting [9]; 93 % of control under setting [10]; 101 % of control under setting [11].

As for `COc1ccc(-c2nc3cc(Cl)ccc3c(=O)o2)cc1`, the T/C was 88 % of control under setting [8], 91 % of control under setting [9] and 88 % of control under setting [11].

As to `CCC1=C/C(=C\c2ccc3c(c2)OCO3)C(=O)S1`, the T/C is 93 % of control (endpoint: mean survival time, dose: 25.0 mg/kg/injection, schedule: Q04DX002 (ip), vehicle: saline with Tween-80); 89 % of control (endpoint: mean survival time, dose: 50.0 mg/kg/injection, schedule: Q04DX002 (ip), vehicle: saline with Tween-80); 93 % of control under setting [12].

`CCCCCCCC(=O)Nc1c(C)cccc1C`: the T/C runs as follows: under setting [1], 96 % of control; under setting [2], 88 % of control; under setting [10], 91 % of control.

Regarding `O=S(O)C(=NCc1ccccc1)NCc1ccccc1`, the T/C by setting is: under setting [1], 105 % of control; under setting [2], 86 % of control.

With `CCN(CC)CCNc1cc(C)nc(/N=C(\N)Nc2ccc(Br)c(C(F)(F)F)c2)n1`, the T/C under setting [8] is 98 % of control.

Consider `C=C1CC2C=CC1C2` (centres undefined) (tested in a mixture with another compound), for which the T/C (endpoint: mean survival time, dose: 80.5 mg/kg/injection, schedule: Q01DX009 (ip), vehicle: saline with Tween-80) is 90 % of control.

`O=C(NCCI)NC1C(O)OC(CO)C(O)C1O` (centres undefined): the T/C by setting is: under setting [3], 93 % of control; under setting [4], 92 % of control; under setting [5], 93 % of control; under setting [6], 95 % of control; under setting [7], 89 % of control.

Take `Cn1nc(C#N)c2ccccc21`: the T/C runs as follows: (endpoint: mean survival time, dose: 100.0 mg/kg/injection, schedule: Q01DX001 (ip), vehicle: saline) 100 % of control; (endpoint: mean survival time, dose: 200.0 mg/kg/injection, schedule: Q01DX001 (ip), vehicle: saline) 102 % of control; (endpoint: mean survival time, dose: 400.0 mg/kg/injection, schedule: Q01DX001 (ip), vehicle: saline) 103 % of control.

Regarding `Cc1cc(C)c(C(=O)c2ccc(-c3ccccc3)cc2)c(C)c1`, the T/C under setting [1] was 95 % of control; the T/C under setting [8] is 98 % of control; the T/C under setting [2] is 98 % of control; the T/C under setting [9] is 106 % of control; the T/C under setting [10] is 91 % of control; the T/C under setting [11] is 98 % of control.

Turning to `CNc1nc(NC)nc(NC)n1`, the T/C is 95 % of control (endpoint: mean survival time, dose: 12.5 mg/kg/injection, schedule: Q01DX009 (ip), vehicle: Klucel (hydroxypropylcellulose) (HPC)); 97 % of control (endpoint: mean survival time, dose: 25.0 mg/kg/injection, schedule: Q01DX009 (ip), vehicle: Klucel (hydroxypropylcellulose) (HPC)); 97 % of control (endpoint: mean survival time, dose: 50.0 mg/kg/injection, schedule: Q01DX009 (ip), vehicle: Klucel (hydroxypropylcellulose) (HPC)); 100 % of control (endpoint: mean survival time, dose: 100.0 mg/kg/injection, schedule: Q01DX009 (ip), vehicle: Klucel (hydroxypropylcellulose) (HPC)); 103 % of control (endpoint: mean survival time, dose: 200.0 mg/kg/injection, schedule: Q01DX009 (ip), vehicle: Klucel (hydroxypropylcellulose) (HPC)).

As for `NC1CC(=O)C(CC2C(=O)CC(N)CC2=O)C(=O)C1` (centres undefined), the T/C was 102 % of control under setting [8], 101 % of control under setting [9] and 98 % of control under setting [11].

In the case of `O=C1c2ccccc2C(c2ccc(Br)cc2)C1Br` (centres undefined), the T/C is 97 % of control under setting [8], 90 % of control under setting [9] and 100 % of control under setting [11].

In the case of `Cc1c2c(c(C)c3c(C)nccc13)Cc1ccccc1-2`, the T/C under setting [12] is 92 % of control; the T/C (endpoint: mean survival time, dose: 200.0 mg/kg/injection, schedule: Q04DX002 (ip), vehicle: saline with Tween-80) is 92 % of control; the T/C (endpoint: mean survival time, dose: 400.0 mg/kg/injection, schedule: Q04DX002 (ip), vehicle: saline with Tween-80) was 88 % of control.

For the compound `Brc1ccc(OCC(COc2ccc(Br)cc2)(COc2ccc(Br)cc2)COc2ccc(Br)cc2)cc1`, the T/C reads like this: under setting [13], 100 % of control; under setting [14], 103 % of control; under setting [15], 91 % of control.

Regarding `Nc1cc2n[nH]nc2c(=O)[nH]1`, the T/C runs as follows: (endpoint: median survival time, dose: 50.0 mg/kg/injection, schedule: Q01DX005 (ip), vehicle: saline with Tween-80) 107 % of control; (endpoint: median survival time, dose: 100.0 mg/kg/injection, schedule: Q01DX005 (ip), vehicle: saline with Tween-80) 101 % of control; (endpoint: median survival time, dose: 200.0 mg/kg/injection, schedule: Q01DX005 (ip), vehicle: saline with Tween-80) 100 % of control.

As to `O=C(O)C1C=CC(C(=O)O)c2ccccc21` (centres undefined), the T/C is 91 % of control under setting [13], 90 % of control under setting [14] and 91 % of control under setting [15].

Take `CCOC(=O)C(C(=O)c1ccccc1)c1cc(NS(=O)(=O)c2ccccc2)ccc1O` (centres undefined): the T/C (endpoint: mean survival time, dose: 132.0 mg/kg/injection, schedule: Q04DX003 (ip), vehicle: saline with Tween-80) is 115 % of control; the T/C under setting [9] is 106 % of control; the T/C (endpoint: mean survival time, dose: 300.0 mg/kg/injection, schedule: Q04DX003 (ip), vehicle: saline with Tween-80) is 103 % of control.

Consider `[CH3][Sn]([CH3])([CH3])[CH2]CCBr`, for which the T/C runs as follows: (endpoint: mean survival time, dose: 0.39 mg/kg/injection, schedule: Q01DX009 (ip), vehicle: saline) 107 % of control; (endpoint: mean survival time, dose: 0.78 mg/kg/injection, schedule: Q01DX009 (ip), vehicle: saline) 107 % of control; (endpoint: mean survival time, dose: 50.0 mg/kg/injection, schedule: Q01DX009 (ip), vehicle: saline) 89 % of control.
